The source of these data is article PMC9403987 (Frontiers in Oncology, 2022).

In data set [1] the test system is COLO 205. The data set is described as follows: Subcutaneous COLO 205 colorectal cancer xenograft. It counts as in vivo, BALB/c nude mice. Particulars: 26 days, measured day 25. The procedure: (§1) The efficacy of GLR2007 was evaluated in human GBM and breast cancer orthotopic cell-line-derived xenografts in NOD/SCID mice (Shanghai Lingchang Biotechnology Co. Ltd, Shanghai, China) and BALB/c nude mice (Shanghai Sino-British SIPPR/BK Laboratory Animal Co. Ltd, Shanghai, China), and human lung, colorectal, and liver cancer subcutaneous cell-line-derived xenografts in BALB/c nude mice (Nanjing University National Resource Center, Nanjing, China, or Beijing Anikeeper Biotech Co., Beijing, China). Mice were maintained in humidity- and temperature-controlled conditions with food and water available ad libitum. For subcutaneous models, female BALB/c nude mice were inoculated at 4–8 weeks old with 3×10^6–1×10^7 tumor cells (see Table 1 for xenograft model cell types) in the right flank for tumor development. Randomization was performed when the mean tumor volume reached 118–171 mm^3.

The subject of data set [2] is NCI-H1975. The data set is described as follows: Subcutaneous NCI-H1975 non-small cell lung cancer xenograft. The class given is in vivo, BALB/c nude mice. To be noted: 22 days, measured day 16. The procedure:
as §1

The test system of data set [3] is 4T1. The data set is described as follows: Cell proliferation assay. To be noted: 4T1, breast carcinoma, 72 hours. The class given is cell-based, Mus musculus. The procedure:
(§2) To quantify cell proliferation, either the nuclei of live cells were counted following staining with 4’,6-diamidino-2-phenylindole (DAPI; Sigma-Aldrich, Burlington, MA, USA), or metabolically active cells were detected using a CellTiter-Glo assay (Promega Corporation, Madison, WI, USA). Cells from a range of human and mammalian tumor cell lines (American Type Culture Collection, Manassas, VA, USA) were seeded at 4000 cells per well in 100 μL of culture medium in a 96-well plate and incubated overnight at 37°C with 5% CO2. […] In the DAPI staining method, cells were washed using 1× phosphate-buffered saline (PBS; Gibco Thermo Fisher Scientific, Waltham, MA, USA), fixed with 4% formaldehyde, permeabilized with 0.2% Triton X-100 (Sigma-Aldrich), washed again, and stained with 1 μg/mL DAPI to visualize cell nuclei. Cells were washed with 1× PBS three times, and 100 μL 1× PBS was added to each well. Plates were scanned using an IN Cell Analyzer 2200 (GE Healthcare Life Sciences, Chicago, IL, USA) and the number of cells per well was recorded. In the CellTiter-Glo assay, 60 μL of CellTiter-Glo luminescent solution was added to each well after incubation with the test compounds, and the assay plate was scanned using a Tecan Infinite M1000 PRO microplate reader (Tecan Group AG, Männedorf, Switzerland) to record luminescent signals.

Data set [4] concerns Colon-26. In words: Cell proliferation assay. The class given is cell-based, Mus musculus. To be noted: Colon-26, colorectal carcinoma, 72 hours. The procedure: as §2
Data set [5] deals with H22. In words: Cell proliferation assay. It counts as cell-based, Mus musculus. Particulars: H22, liver, hepatocellular carcinoma, 72 hours. The procedure: as §2
The subject of data set [6] is BNL CL.2. The data set is described as follows: Cell proliferation assay. Particulars: BNL CL.2, liver, normal, 72 hours. The class given is cell-based, Mus musculus. The procedure:
as §2

For data set [7], the system named is Hepa1-6. The data set is described as follows: Cell proliferation assay. It counts as cell-based, Mus musculus. To be noted: Hepa1-6, liver, hepatocellular carcinoma, 72 hours. The method, then:
as §2

For data set [8], the system named is Glioma 261. In words: Cell proliferation assay. It counts as cell-based, Mus musculus. Particulars: Glioma 261, brain, murine glioma, 72 hours. The procedure:
as §2

The test system of data set [9] is U87-MG. On the set-up: method as in PMID 26149830. Particulars: orthotopic U87-MG GBM rat xenografts; cited from earlier work.
The test system of data set [10] is BRL-3a. The data set is described as follows: Cell proliferation assay. Particulars: liver, normal, 72 hours. It counts as cell-based, Rattus norvegicus. The method, then:
as §2

A short description of data set [11]: Excretion of radioactivity in intact rats. The class given is in vivo, Sprague Dawley rats. The method, then: (§3) To investigate the degree to which GLR2007 penetrated organs and tissues, and the levels of excretion of the compound, rats were dosed with radiolabeled GLR2007 and whole-body autoradiography was performed. Sprague Dawley rats (Vital River Laboratory Animal Technology Co., Beijing, China; N=38, female n=19; 8–11 weeks old) were maintained in humidity- and temperature-controlled conditions on a 12-hour light/dark cycle, with food (certified rat diet; Jiangsu Xietong Pharmaceutical Biological Engineering Co., Ltd, Jiangsu, China) and water available ad libitum. […] Urine, feces, and cage rinse/wash up to 168 hours after treatment were collected from six intact rats (three male, three female); bile, urine, feces, and cage rinse/wash up to 72 hours after treatment were collected from eight bile duct cannulated (BDC) rats (four male, four female). Heart, lung, liver, spleen, kidneys, whole brain, stomach tract wall, intestinal tract wall, skeletal muscle, body fat, reproductive organs (uterus and ovary for female rats, testis and epididymis for male rats) were collected at 2, 6, 24, and 72 hours after treatment (three male, three female per time point). The total radioactivity (TRA) of plasma, bile, urine, and cage rinse/wash samples was directly analyzed by liquid scintillation counting. Fecal and tissue homogenates and blood were combusted using a PerkinElmer Oxidizer (PerkinElmer Inc.), and the generated [^14C]CO2 was captured in ^14C scintillation cocktail (Shimadzu Corporation, Kyoto, Japan), followed by analysis using a PerkinElmer Liquid Scintillation Counter (PerkinElmer Inc.). The TRA levels determined in bile, urine, feces, and cage rinse/wash were used to calculate the percentage of the administered dose excreted. Mean TRA values of whole brain and plasma at 2, 6, 24, and 72 hours were used to calculate the area under concentration–time curve from time zero to 72 hours (AUC0–72), using a noncompartmental model in Phoenix WinNonlin v6.3 software (Certara, Princeton, NJ, USA).

The nature of data set [12]: Excretion of radioactivity in bile duct cannulated (BDC) rats. The class given is in vivo, Sprague Dawley rats. The method, then: as §3
Data set [13] relates to Colo320DM. The data set is described as follows: Cell proliferation assay. The class given is cell-based, Homo sapiens. To be noted: colon carcinoma, 72 hours. The gist of the method: (§4)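 Cells plated at 4000 per well; overnight incubation at 37°C, 5% CO2. Compound treatment followed. Cells then fixed (4% formaldehyde), permeabilized (0.2% Triton X-100) and stained with 1 μg/mL DAPI for imaging-based nuclear counts, or lysed with CellTiter-Glo reagent for luminescence.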

The test system of data set [14] is PLC/PRF/5. In words: Cell proliferation assay. The class given is cell-based, Homo sapiens. Particulars: PLC/PRF/5, liver, hepatocellular carcinoma, 72 hours. The gist of the method:
as §4

Data set [15] addresses T1, CDK6–cyclin D1 (Homo sapiens, UniProt Q00534).
T1 construct: purchased Invitrogen
In words: LANCE Ultra TR-FRET enzymatic profiling assay. The class given is biochemical. The procedure: Results were calculated as half-maximal inhibitory concentration (IC50) and inhibition constant (K i).
(In general: Time-resolved FRET reads energy transfer from a long-lived donor to a nearby acceptor.)

Data set [16] has as its system NCI-H2228. In words: Subcutaneous NCI-H2228 non-small cell lung cancer xenograft. The class given is in vivo, BALB/c nude mice. To be noted: 50 mg/kg daily oral, 28 days, measured day 34. The procedure: as §1
For data set [17], the system named is P-glycoprotein. To be noted: cited from earlier work.

SMILES strings stand for the structures.

T1 sequence (Q00534 whole entry): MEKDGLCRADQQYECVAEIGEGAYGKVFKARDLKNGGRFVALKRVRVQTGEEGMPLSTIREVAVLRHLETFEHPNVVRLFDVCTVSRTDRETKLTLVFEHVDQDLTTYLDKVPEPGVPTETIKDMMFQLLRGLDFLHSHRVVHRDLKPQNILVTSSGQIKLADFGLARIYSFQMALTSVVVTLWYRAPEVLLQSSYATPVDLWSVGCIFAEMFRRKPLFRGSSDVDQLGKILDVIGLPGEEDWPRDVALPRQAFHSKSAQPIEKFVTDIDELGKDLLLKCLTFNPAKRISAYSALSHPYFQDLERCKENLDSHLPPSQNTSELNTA
T1 sequence (P24385 whole entry partner): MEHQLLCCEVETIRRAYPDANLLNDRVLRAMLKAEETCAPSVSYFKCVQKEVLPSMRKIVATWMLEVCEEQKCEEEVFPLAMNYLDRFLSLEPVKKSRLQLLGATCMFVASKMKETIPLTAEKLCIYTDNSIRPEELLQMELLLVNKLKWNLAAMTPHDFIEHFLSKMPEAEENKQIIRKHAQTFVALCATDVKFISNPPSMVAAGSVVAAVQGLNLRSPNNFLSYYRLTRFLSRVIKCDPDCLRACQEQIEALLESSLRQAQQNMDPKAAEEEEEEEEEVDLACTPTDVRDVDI

Turning to `CCN1CCN(Cc2ccc(Nc3ncc(F)c(-c4cc(F)c5nc(C)n(C(C)C)c5c4)n3)nc2)CC1` [Abemaciclib, abemaciclib, reference compound], the “TGI (%)” value in data set [1] (25 mg/kg daily oral) is reported as 57.7%; in data set [2] (25 mg/kg daily oral), 6.9%. In addition, the IC50 (as a rule, the concentration that inhibits the measured activity by half) is 4790 nM in data set [3] (Mus musculus); over 10000 nM in [4] (Mus musculus); 3580 nM in data set [5] (Mus musculus); 10000 nM in data set [6] (Mus musculus); 1270 nM in [7] (Mus musculus); 2520 nM in data set [8] (Mus musculus). Moreover, in [10] (Rattus norvegicus), 10000 nM corresponded to half-maximal inhibition (IC50). Moreover, the “Increase in survival time compared to vehicle control” value in [9] is 37.4%.
As to `CC1=Nc2c(F)cc(-c3nc(Nc4ccc(C5CCN(C)CC5)cn4)ncc3F)cc2C12CCCC2` [GLR2007], the “TGI (%)” value in data set [1] (5 mg/kg daily oral) was 42.6%; in data set [1] (25 mg/kg daily oral), 72.2%; in data set [2] (10 mg/kg daily oral), 27.6%; in data set [2] (25 mg/kg daily oral), 50.0%; in data set [16], 33.9%. Besides, in data set [11] (single oral 6 mg/100 μCi/kg), the “Radioactivity excreted via feces” value worked out at 84.10%. Moreover, the Dose recovered in data set [11] (within 168 hours, single oral 6 mg/100 μCi/kg) was 95.5%; in data set [11] (within the first 48 hours), 74.3%; in [12] (BDC rats, within 72 hours, single oral 6 mg/100 μCi/kg), 84.2%. The IC50 in data set [3] worked out at 1940 nM; in data set [4], 2120 nM; in data set [5] it was 1840 nM; in data set [6] it was 1940 nM; in [7], 526 nM; in data set [8], 1970 nM. Further, the IC50 in [13] came to 1140 nM; in [14] it was 302 nM; in data set [15] (CDK6/CyD1, 11 concentrations in duplicates), 0.53 nM; in data set [10], 1870 nM. Further, the “Dose recovered in bile” value in [12] (BDC rats, within 72 hours) came out at 33.3%. For the same compound, the “Dose predicted to be absorbed” value in data set [12] (based on excretion in bile and urine from BDC rats) is listed as “at least 42.4%”. Besides, in [15] (CDK6/CyD1), the Ki (as a rule, a dissociation constant, usually derived from enzyme kinetics or from competition with a known ligand) was under 0.08 nM. Also, in [17], the “Substrate of efflux transporter P-glycoprotein” value is recorded as “not a substrate”.
